From BindingDB's records for doi:10.1016/j.bioorg.2015.11.006 (Universiti Teknologi Mara (Uitm), 2016) come the findings set out here.

SMILES strings stand for the structures.

Sequence of Alpha-glucosidase MAL12 (P53341 whole entry): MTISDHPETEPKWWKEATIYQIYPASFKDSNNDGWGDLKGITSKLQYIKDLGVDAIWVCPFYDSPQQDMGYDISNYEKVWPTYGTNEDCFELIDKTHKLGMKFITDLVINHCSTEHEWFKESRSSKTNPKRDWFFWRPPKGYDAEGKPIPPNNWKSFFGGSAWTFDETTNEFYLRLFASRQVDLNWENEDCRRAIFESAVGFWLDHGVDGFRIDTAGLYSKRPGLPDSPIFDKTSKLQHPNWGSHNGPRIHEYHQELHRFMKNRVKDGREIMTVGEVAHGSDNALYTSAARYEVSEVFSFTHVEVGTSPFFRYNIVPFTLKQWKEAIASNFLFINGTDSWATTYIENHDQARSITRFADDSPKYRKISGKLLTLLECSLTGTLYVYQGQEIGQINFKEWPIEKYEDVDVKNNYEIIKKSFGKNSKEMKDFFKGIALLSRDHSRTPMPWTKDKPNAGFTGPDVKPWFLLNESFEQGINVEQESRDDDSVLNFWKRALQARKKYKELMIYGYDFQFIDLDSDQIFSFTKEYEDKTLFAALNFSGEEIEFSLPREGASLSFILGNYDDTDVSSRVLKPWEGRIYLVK

The test addresses Alpha-glucosidase MAL12 (Saccharomyces cerevisiae (strain ATCC 204508 / S288c), UniProt P53341). In words: Baker's Yeast α-Glucosidase Inhibition Assay. Particulars: pH 6.8. How it is done: The enzyme inhibition was evaluated according to the method previously reported by Rahim et al. [25] with slight modification. Various concentration of test compounds (10 µL) were dissolved in DMSO (ranging from 200 to 6.25 µg/mL) and premixed with 95 µL of 50 mM phosphate buffer (pH 6.8). Then, 25 µL of enzyme(0.0625 U/mL) in phosphate buffer saline was added into each well and the plate was incubated at 37 °C for 10 min. Afterward, 25 µl of PNPG in phosphate buffer saline (5 mM) were added and pre-read of the plate was taken by using a microplate reader (Spectrostar Nano BMG Labtech, Germany). The reaction mixture was then incubated at 37 °C for 30 min and change in absorbance at 405 nm was monitored up to 30 min. For negative control, the test samples were replaced with 10 µL of DMSO and acarbose was used as positive control
On to `Cc1cc2nc(-c3ccc(C(=O)N/N=C/c4cccc(Cl)c4)cc3)[nH]c2cc1C` [(E)-N'-(3-chlorobenzylidene)-4-(5,6-dimethyl-1H-benzo[d]imidazol-2-yl) benzohydrazide (8)], for which half-maximal inhibition (IC50) was put at 22.4 µM.

In the case of `Cc1cc2nc(-c3ccc(C(=O)N/N=C/c4ccccc4O)cc3)[nH]c2cc1C` [(E)-4-(5,6-dimethyl-1H-benzo[d]imidazol-2-yl)-N'-(2-hydroxybenzylidene) benzohydrazide (15)], 18.2 µM corresponded to half-maximal inhibition (IC50). Turning to `COc1ccc(/C=N/NC(=O)c2ccc(-c3nc4cc(C)c(C)cc4[nH]3)cc2)c(O)c1` [(E)-4-(5,6-dimethyl-1H-benzo[d]imidazol-2-yl)-N'-(2-hydroxy-4-methoxybenzylidene) benzohydrazide (10)], inhibition was half-maximal at 8.44 µM (IC50). Turning to `Cc1ccc(/C=N/NC(=O)c2ccc(-c3nc4cc(C)c(C)cc4[nH]3)cc2)cc1` [(E)-4-(5,6-dimethyl-1H-benzo[d]imidazol-2-yl)-N'-(4-methylbenzylidene) benzohydrazide (16)], the IC50 (as a rule, the point on the concentration scale where inhibition reaches its midpoint) turned out to be 18.3 µM. The value for `COc1ccc(/C=N/NC(=O)c2ccc(-c3nc4cc(C)c(C)cc4[nH]3)cc2)cc1OC` [(E)-N'-(3,4-dimethoxybenzylidene)-4-(5,6-dimethyl-1H-benzo[d]imidazol-2-yl)benzohydrazide (3)] was 180 µM; that for `Cc1cc2nc(-c3ccc(C(=O)N/N=C/c4cccc(O)c4)cc3)[nH]c2cc1C` [(E)-4-(5,6-dimethyl-1H-benzo[d]imidazol-2-yl)-N'-(3-hydroxybenzylidene) benzohydrazide (2)] was 32.5 µM; that for `Cc1cc2nc(-c3ccc(C(=O)N/N=C/c4ccc(O)c(Br)c4)cc3)[nH]c2cc1C` [(E)-N'-(3-bromo-4-hydroxybenzylidene)-4-(5,6-dimethyl-1H-benzo[d]imidazol-2-yl)benzohydrazide (17)] was 34.5 µM.

Turning to `Cc1cc2nc(-c3ccc(C(=O)N/N=C/c4ccc([N+](=O)[O-])cc4)cc3)[nH]c2cc1C` [(E)-4-(5,6-dimethyl-1H-benzo[d]imidazol-2-yl)-N'-(4-nitrobenzylidene) benzohydrazide (25)], half-maximal inhibition (IC50) required 19.3 µM. In turn, `Cc1cc2nc(-c3ccc(C(=O)N/N=C/c4cccc(F)c4)cc3)[nH]c2cc1C` [(E)-4-(5,6-dimethyl-1H-benzo[d]imidazol-2-yl)-N'-(3-fluorobenzylidene) benzohydrazide (26)] returned an IC50 of 158 µM. The value for `Cc1cccc(/C=N/NC(=O)c2ccc(-c3nc4cc(C)c(C)cc4[nH]3)cc2)c1` [(E)-4-(5,6-dimethyl-1H-benzo[d]imidazol-2-yl)-N'-(3-methylbenzylidene) benzohydrazide (14)] was 23.5 µM.

In turn, `Cc1cc2nc(-c3ccc(C(=O)N/N=C/c4cc(O)c(O)c(O)c4)cc3)[nH]c2cc1C` [(E)-4-(5,6-dimethyl-1H-benzo[d]imidazol-2-yl)-N'-(3,4,5-trihydroxybenzylidene) benzohydrazide (19)] had an IC50 of 8.4 µM. The value for `COc1ccc(O)c(/C=N/NC(=O)c2ccc(-c3nc4cc(C)c(C)cc4[nH]3)cc2)c1` [(E)-4-(5,6-dimethyl-1H-benzo[d]imidazol-2-yl)-N'-(pyridin-4-ylmethylene) benzohydrazide (12)] was 8.44 µM; that for `Cc1cc2nc(-c3ccc(C(=O)N/N=C/c4ccc(O)c(O)c4)cc3)[nH]c2cc1C` [(E)-N'-(3,4-dihydroxybenzylidene)-4-(5,6-dimethyl-1H-benzo[d]imidazol-2-yl) benzohydrazide (7)] was 12.5 µM; that for `Cc1cc2nc(-c3ccc(C(=O)N/N=C/c4cccnc4)cc3)[nH]c2cc1C` [(E)-4-(5,6-dimethyl-1H-benzo[d]imidazol-2-yl)-N'-(pyridin-3-ylmethylene) benzohydrazide (23)] was 46 µM. For the compound `COc1cccc(/C=N/NC(=O)c2ccc(-c3nc4cc(C)c(C)cc4[nH]3)cc2)c1` [(E)-4-(5,6-dimethyl-1H-benzo[d]imidazol-2-yl)-N'-(3-methoxybenzylidene) benzohydrazide (24)], the midpoint of inhibition, the IC50, lay at 15.1 µM. The value for `Cc1cc2nc(-c3ccc(C(=O)N/N=C/c4ccc(O)cc4O)cc3)[nH]c2cc1C` [(E)-N'-(2,4-dihydroxybenzylidene)-4-(5,6-dimethyl-1H-benzo[d]imidazol-2-yl) benzohydrazide (6)] was 8.74 µM.

On to `Cc1cc2nc(-c3ccc(C(=O)N/N=C\c4ccc(Cl)cc4)cc3)[nH]c2cc1C` [(Z)-N'-(4-chlorobenzylidene)-4-(5,6-dimethyl-1H-benzo[d]imidazol-2-yl)benzohydrazide (22)], for which it took 24.8 µM to reach half-maximal inhibition (IC50). The value for `Cc1cc2nc(-c3ccc(C(=O)N/N=C/c4ccccc4C)cc3)[nH]c2cc1C` [(E)-4-(5,6-dimethyl-1H-benzo[d]imidazol-2-yl)-N'-(2-methylbenzylidene) benzohydrazide (13)] was 24.8 µM. The value for `Cc1cc2nc(-c3ccc(C(=O)N/N=C/c4ccc(O)cc4)cc3)[nH]c2cc1C` [(E)-4-(5,6-dimethyl-1H-benzo[d]imidazol-2-yl)-N'-(4-hydroxybenzylidene) benzohydrazide (1)] was 26 µM.

In turn, `Cc1cc2nc(-c3ccc(C(=O)N/N=C/c4ccncc4)cc3)[nH]c2cc1C` [(E)-4-(5,6-dimethyl-1H-benzo[d]imidazol-2-yl)-N'-(pyridin-4-ylmethylene) benzohydrazide (11)] displayed a half-maximal inhibitory concentration (IC50) of 148 µM. To `COc1ccc(/C=N/NC(=O)c2ccc(-c3nc4cc(C)c(C)cc4[nH]3)cc2)cc1O` [(E)-4-(5,6-dimethyl-1H-benzo[d]imidazol-2-yl)-N'-(3-hydroxy-4-methoxybenzylidene) benzohydrazide (9)] belongs 29 µM; to `Cc1cc2nc(-c3ccc(C(=O)N/N=C/c4cc(O)ccc4O)cc3)[nH]c2cc1C` [(E)-N'-(2,5-dihydroxybenzylidene)-4-(5,6-dimethyl-1H-benzo[d]imidazol-2-yl) benzohydrazide (4)], 8.74 µM; to `Cc1cc2nc(-c3ccc(C(=O)N/N=C/c4cccc(O)c4O)cc3)[nH]c2cc1C` [(E)-N'-(2,3-dihydroxybenzylidene)-4-(5,6-dimethyl-1H-benzo[d]imidazol-2-yl)benzohydrazide (5)], 9.99 µM.

For the compound `COc1ccc(/C=N/NC(=O)c2ccc(-c3nc4cc(C)c(C)cc4[nH]3)cc2)cc1` [(E)-4-(5,6-dimethyl-1H-benzo[d]imidazol-2-yl)-N'-(4-methoxybenzylidene) benzohydrazide (20)], 32.6 µM corresponded to half-maximal inhibition (IC50). The value for `Cc1cc2nc(-c3ccc(C(=O)N/N=C/c4ccccn4)cc3)[nH]c2cc1C` [(E)-4-(5,6-dimethyl-1H-benzo[d]imidazol-2-yl)-N'-(pyridin-2-ylmethylene) benzohydrazide (18)] was 25.7 µM. The value for `Cc1cc2nc(-c3ccc(C(=O)N/N=C/c4ccco4)cc3)[nH]c2cc1C` [(E)-4-(5,6-dimethyl-1H-benzo[d]imidazol-2-yl)-N'-(furan-2-ylmethylene) benzohydrazide (21)] was 32.1 µM.
